In patent publication US20150190416A1, “FILAGGRIN PRODUCTION PROMOTER, THERAPEUTIC AGENT FOR DISEASES ASSOCIATED WITH REDUCTION IN PRODUCTION OF FILAGGRIN, AND METHOD FOR SCREENING FOR SAID THERAPEUTIC AGENT” (KYOTO UNIVERSITY, priority 2012, published 2015):

Legend:
[1] = test system: FLG mRNA; test: FLG mRNA expression-increasing effect in NHEK cells, real-time PCR (Example 2); assay type: cell-based, human; conditions: 10 nM, with or without calcium priming
Method: In this example, the FLG mRNA expression-increasing effect of Compound 1 or Compound 2 was confirmed by using NHEK cells.
1) 5×10^4 cells/well of NHEK cells (Invitrogen) were plated on a 24-well plate, and then 500 μl of a culture medium containing a medium for proliferating normal human epidermal keratinocytes (HuMedia-KG2, KURABO INDUSTRIES LTD.) supplemented with hEGF (0.1 ng/ml), insulin (10 μg/ml), hydrocortisone (0.5 μg/ml), gentamycin (50 μg/ml), amphotericin B (50 ng/ml), and bovine brain pituitary extract (BPE) (0.4%, v/v) were added to the plate, and the cells were cultured under the conditions of 37° C. and 5% CO2. Next, after culture under the conditions of the following step 2) or 3), a sample was prepared. […]
4) An extraction reagent (TRIzol™, Invitrogen) was used, and according to the manufacturer's protocol, total RNA was extracted from each of cells treated with the medicament (Compound 1 or Compound 2) in the steps 2) and 3). […] Next, real-time PCR was conducted by using the following primers and SYBR™ Premix Ex Taq (Takara) with a CFX96 real-time PCR instrument (Bio-Rad Laboratories, Inc.) according to the manufacturer's protocol, and the amount of FLG mRNA was measured. […]

[2] = test system: FLG mRNA; test: FLG mRNA in three-dimensional cultured skin, real-time PCR (Example 10); assay type: cell-based; conditions: human skin three-dimensional model, 1 μM, recovered 7 days after start of culture
Method: In this example, the expression-increasing effect of Compound 1 on FLG mRNA was examined by using three-dimensional cultured skin. FLG mRNA expression was measured by a real-time PCR method.
1) A commercially available human skin three-dimensional model (TEST SKIN™ LSE-013, TOYOBO CO., LTD.) was cultured by using TEST SKIN LSE ASSAY MEDIUM (TOYOBO CO., LTD.) according to the manufacturer's protocol.
2) After culture for 2 days, the following medicament A) or C) was dissolved in DMSO, and was added to the medium at 1 μM to treat the cells with the medicament. • A) Compound 1 (N-quinolylbenzamide derivative) • C) Comparative Compound 2 (scriptaid)
As a control example, a solvent only (vehicle) was added.
3) After further culture for 2 days (4 days after the start of culture), the medium was exchanged for the medium to which the medicament was added. 3 days after further culture (7 days after the start of culture), the three-dimensional cultured skin was recovered, frozen with liquid nitrogen, and then stored at −30° C.
4) Total RNA was extracted from each of the cells treated with the medicaments by using an RNA extraction reagent (RNeasy™, QIAGEN N.V.) according to the manufacturer's protocol. cDNA was prepared from the total RNA by using a reverse transcriptase reagent (Prime Script™, Takara) according to the manufacturer's protocol. […]

[3] = test system: atopic dermatitis mouse model (NC/Nga); test: Dermatitis-alleviating effect in atopic dermatitis mouse model (NC/Nga) (Example 14); assay type: in vivo
Method: Experiments were conducted with raising 6- to 10-week-old atopic dermatitis-developing NC/Nga mice with mites (Japan SLC, Inc.) under a normal environment. Namely, the dermatitis-alleviating effect was measured by the oral administration of 500 μl of a solution obtained by dissolving Compound 1 at 0.75 mg/ml in a methyl cellulose solution (0.5 W/V % Methyl Cellulose 400 Solution, Wako, 133-14255) to an NC/Nga mouse developing dermatitis majorly in the ear auricles and the head (0.375 mg of Compound 1 was administered to the mouse per time) every other day. As a control, 500 μl of the methylcellulose solution were administered orally every other day.
With regard to clinical manifestations, the evaluation was conducted on a four-point scale of none (0), weak (1), moderate (2), and severe (3) by visual inspection for four items of erythema, edema, erosion, and squama. The evaluated values of the four items were summed to give a score before the start of oral administration (0 wk), 4 weeks after the oral administration (4 wk), and 8 weeks after the oral administration (8 wk), and then the clinical manifestations of a mouse model were measured as a clinical score. Further, the oral administration was ended 8 weeks after the start of oral administration, and thereafter, the mouse was continued to be kept under the same conditions. 4 weeks after the end of oral administration (12 wk after the start of oral administration), clinical manifestations were scored in the same manner.
A TEWL was measured 8 and 12 weeks after the start of oral administration in the above-mentioned section (i) using a tape type closed chamber system water transpiration measuring instrument VAPO SCAN AS-VT100RS (ASAHI BIOMED) according to the manufacturer's manual.
The appearances of the developing NC/Nga mice 12 weeks after the start of oral administration (the oral administration was ended 8 weeks after the start of oral administration) in (i) described above were shown in FIGS. 16(a) and 16(b).

| SMILES | FLG mRNA expression (GAPDH ratio) [1] | FLG mRNA expression (GAPDH ratio) [2] | appearance of developing NC/Nga mouse ([3]; 12 weeks after start of oral administration, 4 weeks after the end) | amount of water transpiration (TEWL) ([3]; NC/Nga mouse, 4 weeks after the end of oral administration (12 weeks after the start)) | clinical manifestations of dermatitis (clinical score) ([3]; NC/Nga mouse, 4 weeks after the end of oral administration (12 wk after the start)) | clinical manifestations of dermatitis (clinical score) ([3]; NC/Nga mouse, oral 0.375 mg every other day, 8 weeks after the start of oral administration) | transepidermal water loss (TEWL) ([3]; developing NC/Nga mouse, oral 0.375 mg every other day, after 8 weeks, control about 60) |
| --- | --- | --- | --- | --- | --- | --- | --- |
| CC[C@H](C)[C@H]1O[C@]2(CC[C@@H]1C)C[C@@H]1C[C@@H](C/C=C(\C)[C@@H](O[C@H]3C[C@H](OC)[C@@H](O[C@H]4C[C@H](OC)[C@@H](O)[C@H](C)O4)[C@H](C)O3)[C@@H](C)/C=C/C=C3\CO[C@@H]4[C@H](O)C(C)=C[C@@H](C(=O)O1)[C@]34O)O2 [Compound 2, Ivermectin, reference compound] | increases the FLG mRNA expression | – | – | – | – | – | – |
| O=C(CCCCCN1C(=O)c2cccc3cccc(c23)C1=O)NO [Comparative Compound 2, 6-(1,3-Dioxo-1H,3H-benzo[de]isoquinolin-2-yl)hexanoic acid hydroxyamide, reference compound] | – | increased FLG mRNA expression | – | – | – | – | – |
| CCc1ccc(OCc2ccccc2C(=O)Nc2ccc3nc(C)cc(N)c3c2)cc1.Cl [Compound 1, N-(4-Amino-2-methyl-6-quinolyl)-2-[(4-ethylphenoxy)methyl]benzamide hydrochloride] | increases the FLG mRNA expression | increased FLG mRNA expression | almost good clinical manifestations were kept | suppressed as compared to the control | symptoms of dermatitis were suppressed as compared to the control | symptoms of dermatitis were alleviated | about 10 g/h·m^2 |
